In patent publication EP0450097B1, “BENZOHETEROCYCLIC COMPOUNDS” (OTSUKA PHARMACEUTICAL CO., LTD., priority 1989, dated 1991) one finds IC50 data, which are given here for 70 compounds.

This test has as its target T1, V₂ receptor (Rattus norvegicus, UniProt Q00788).
T1 construct: Using rat kidney plasma membrane preparations; from tissue; host or cells: rat kidney plasma membranes
Description: V₂ receptor binding assay ([³H]-Arg-vasopressin, rat kidney plasma membrane preparations). The note with it: 4°C for 3 hours. On the procedure: Using rat kidney plasma membrane preparations prepared according to O. Hechter's method [cf: J. Bio. […] After incubation, the mixture is filtered using the glass filter (GF/F) so as to separate the membrane preparation combined with vasopressin and then washed twice with the buffer (5 ml). This glass filter is taken out and mixed with liquid scintillation cocktail. The amount of [³H]-vasopressin combined with the membrane is measured by liquid scintillation counter and the rate of the inhibitory effect of the test compound is estimated according to the following equation. Rate of the inhibitory effect (%) = 100 -(C1 - B1)/(C0 - B1)X 100 [formula] C¹: The amount of [³H]-vasopressin combined with the membrane in the presence of the test compound (in prescribed amount). C⁰: The amount of [³H)-vasopressin combined with the membrane in the absence of the test compound. B¹: The amount of [³H]-vasopressin combined with the membrane in the presence of the excess amount of vasopressin (10⁻⁶ M).
The results are expressed as IC₅₀ values, which is the concentration of the test compound required to achieve the inhibitory effect in the rate of 50 %.

T1 sequence (Q00788 whole entry): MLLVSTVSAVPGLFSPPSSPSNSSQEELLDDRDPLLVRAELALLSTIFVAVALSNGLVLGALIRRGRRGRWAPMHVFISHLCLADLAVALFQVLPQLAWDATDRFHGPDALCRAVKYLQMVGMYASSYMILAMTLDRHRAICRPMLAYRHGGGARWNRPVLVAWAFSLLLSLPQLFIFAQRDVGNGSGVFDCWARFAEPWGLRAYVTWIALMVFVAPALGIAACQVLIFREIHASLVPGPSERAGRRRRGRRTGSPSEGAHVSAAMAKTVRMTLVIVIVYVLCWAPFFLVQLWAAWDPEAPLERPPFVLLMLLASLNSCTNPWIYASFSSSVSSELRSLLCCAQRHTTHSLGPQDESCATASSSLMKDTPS

The IC50 is the concentration that inhibits the measured activity by half. A high value points to weaker potency. In the case of `O=C(Nc1ccc(C(=O)N2CCCc3ccccc32)cc1)c1ccccc1` [Test compound 1, 1-(4-Benzoylaminobenzoyl)-1,2,3,4-tetrahydroquinoline], the IC50 was determined as 980 nM.
Under `O=C(Nc1ccc(C(=O)N2CCCc3ccccc32)cc1)c1cccc(Cl)c1` [compound 2] stands 200 nM.
Under `COc1cccc(C(=O)Nc2ccc(C(=O)N3CCCc4ccccc43)cc2)c1` [compound 3] stands 400 nM; under `N#Cc1cccc(C(=O)Nc2ccc(C(=O)N3CCCc4ccccc43)cc2)c1` [compound 4], 580 nM; under `Nc1cccc(C(=O)Nc2ccc(C(=O)N3CCCc4ccccc43)cc2)c1` [compound 5], 1200 nM.
Under `Cc1ccccc1C(=O)Nc1ccc(C(=O)N2CCCc3ccccc32)cc1` [compound 7] stands 200 nM.
For `O=C(Nc1ccc(C(=O)N2CCCc3ccccc32)cc1)c1ccccc1C(F)(F)F` [compound 8], the IC50 was determined as 320 nM.
Under `O=C(Nc1ccc(C(=O)N2CCCc3ccccc32)cc1)c1ccccc1[N+](=O)[O-]` [compound 9] stands 530 nM; under `O=C(Nc1ccc(C(=O)N2CCCc3ccccc32)cc1)c1cc(Cl)cc(Cl)c1` [compound 10], 82 nM.
Under `CC(C)(C)CC(=O)Nc1ccc(C(=O)N2CCCc3ccccc32)cc1` [compound 11] stands 1050 nM; under `O=C(CC1CCCCC1)Nc1ccc(C(=O)N2CCCc3ccccc32)cc1` [compound 12], 1970 nM; under `O=C(Cc1ccccc1)Nc1ccc(C(=O)N2CCCc3ccccc32)cc1` [compound 13], 1020 nM.
Under `O=C(Nc1ccc(C(=O)N2CCCc3ccccc32)cc1)C1CCCCC1` [compound 14] stands 230 nM; under `O=C(Nc1ccc(C(=O)N2CCCc3ccccc32)cc1)C1CCCCCC1` [compound 15], 130 nM; under `O=C(Nc1ccc(C(=O)N2CCCc3ccccc32)cc1)C1CCCCCCC1` [compound 16], 170 nM.
For `O=C(Nc1ccc(C(=O)N2CCCc3ccccc32)cc1)c1cccc2ccccc12` [compound 18], the IC50 was found to be 1000 nM. This IC50 lies about 5.9-fold higher than the previous one.
The same measure for `O=C(Nc1ccccc1C(=O)N1CCCc2ccccc21)c1ccc2ccccc2c1` [compound 20]: 1400 nM; for `COc1ccc(NC(=O)c2ccc(C(=O)N3CCCc4ccccc43)cc2)cc1` [compound 21]: 1000 nM; for `Cc1ccccc1NC(=O)c1ccc(C(=O)N2CCCc3ccccc32)cc1` [compound 22]: 330 nM.
Under `O=C(Nc1cccc(Cl)c1)c1ccc(C(=O)N2CCCc3ccccc32)cc1` [compound 23] stands 1070 nM.
`O=C(Nc1cc(Cl)cc(Cl)c1)c1ccc(C(=O)N2CCCc3ccccc32)cc1` [compound 24] displayed an IC50 of 1090 nM.
Under `O=C(NC1CCCCC1)c1ccc(C(=O)N2CCCc3ccccc32)cc1` [compound 25] stands 1670 nM; under `N#Cc1cccc(C(=O)Nc2ccc(C(=O)N3CCCCc4ccccc43)cc2)c1` [compound 31], 98 nM.
The same measure for `O=C(Nc1ccc(C(=O)N2CCCCCc3ccccc32)cc1)C1CCCCC1` [compound 34]: 49 nM; for `O=C(Nc1ccc(C(=O)N2CCCCCc3ccccc32)cc1)c1ccccc1` [compound 35]: 200 nM.
Under `COc1cccc(C(=O)Nc2ccc(C(=O)N3CCCCCc4ccccc43)cc2)c1` [compound 37] stands 160 nM; under `Cc1cccc(C(=O)Nc2ccc(C(=O)N3CCCCCc4ccccc43)cc2)c1C` [compound 38], 29 nM.
The compound `O=C(Nc1ccc(C(=O)N2CCCCCc3ccccc32)cc1)c1cc(Cl)cc(Cl)c1` [compound 39] showed an IC50 of 71 nM. Against the preceding compound, the IC50 is about 2.4-fold higher.
On to `Cc1cccc(C(=O)Nc2ccc(C(=O)N3CCOCc4ccccc43)cc2)c1` [compound 41], for which the half-maximal inhibitory concentration (IC50) was found to be 200 nM. Compared with the last compound, the IC50 is about 2.8-fold higher.
The same measure for `Cc1cccc(C(=O)Nc2ccc(C(=O)N3CCOCc4ccccc43)cc2)c1C` [compound 42]: 63 nM; for `O=C(Nc1ccc(C(=O)N2CCOCc3ccccc32)cc1)c1cc(Cl)cc(Cl)c1` [compound 43]: 170 nM; for `CC1Cc2ccccc2N(C(=O)c2ccc(NC(=O)C3CCCCC3)cc2)C1` (stereo not shown) [compound 44]: 50 nM.
The same measure for `CC1Cc2ccccc2N(C(=O)c2ccc(NC(=O)c3ccccc3)cc2)C1` (stereo not shown) [compound 45]: 190 nM.
The same measure for `COc1cccc(C(=O)Nc2ccc(C(=O)N3CC(C)Cc4ccccc43)cc2)c1` (stereo not shown) [compound 47]: 200 nM; for `Cc1cccc(C(=O)Nc2ccc(C(=O)N3CC(C)Cc4ccccc43)cc2)c1C` (stereo not shown) [compound 48]: 21 nM; for `CC1Cc2ccccc2N(C(=O)c2ccc(NC(=O)c3cc(Cl)cc(Cl)c3)cc2)C1` (stereo not shown) [compound 49]: 63 nM.
Consider `CN1CCN(C(=O)c2ccc(NC(=O)C3CCCCC3)cc2)c2ccccc21` [compound 50], for which the IC50 was 1300 nM.
Under `Cc1ccccc1C(=O)Nc1ccc(C(=O)N2CCN(C)c3ccccc32)cc1` [compound 51] stands 400 nM; under `Cc1cccc(C(=O)Nc2ccc(C(=O)N3CCN(C)c4ccccc43)cc2)c1C` [compound 52], 320 nM; under `CN1CCN(C(=O)c2ccc(NC(=O)c3cc(Cl)cc(Cl)c3)cc2)c2ccccc21` [compound 53], 1600 nM.
The same measure for `CC1CCc2ccccc2N1C(=O)c1ccc(NC(=O)c2cc(Cl)cc(Cl)c2)cc1` (stereo not shown) [compound 54]: 110 nM; for `CC1CCN(C(=O)c2ccc(NC(=O)c3cc(Cl)cc(Cl)c3)cc2)c2ccccc21` (stereo not shown) [compound 55]: 91 nM.
The same measure for `CN1CCN(C(=O)c2ccc(NC(=O)C3CCCCC3)cc2)c2ccccc2C1` [compound 79]: 530 nM; for `Cc1cccc(C(=O)Nc2ccc(C(=O)N3CCN(C)Cc4ccccc43)cc2)c1C` [compound 81]: 150 nM.
Compound `COc1cccc(C(=O)Nc2ccc(C(=O)N3CCN(C)Cc4ccccc43)cc2)c1` [compound 83] showed an IC50 of 730 nM.
The same measure for `CCCN1CCN(C(=O)c2ccc(NC(=O)c3cccc(C)c3C)cc2)c2ccccc2C1` [compound 86]: 580 nM; for `CN1CCCN(C(=O)c2ccc(NC(=O)c3ccccc3)cc2)c2ccccc21` [compound 87]: 46 nM; for `CN1CCCN(C(=O)c2ccc(NC(=O)c3cc(Cl)cc(Cl)c3)cc2)c2ccccc21` [compound 89]: 35 nM.
For the compound `Cc1cccc(C(=O)Nc2ccc(C(=O)N3CCCN(C)c4ccccc43)cc2)c1C` [compound 91], the IC50 is 5 nM.
The same measure for `COc1cc(C(=O)N2CCN(C)Cc3ccccc32)ccc1NC(=O)c1cc(Cl)cc(Cl)c1` [compound 92]: 410 nM; for `Cc1cccc(C(=O)Nc2ccc(C(=O)N3CC(N4CCCC4)Cc4ccccc43)cc2)c1C` (stereo not shown) [compound 93]: 520 nM.
The same measure for `Cc1ccc2c(c1)CCCN2C(=O)c1ccc(NC(=O)c2cc(Cl)cc(Cl)c2)cc1` [compound 94]: 95 nM; for `COc1ccc2c(c1)CCCN2C(=O)c1ccc(NC(=O)c2cc(Cl)cc(Cl)c2)cc1` [compound 95]: 89 nM.
The same measure for `O=C(Nc1ccc(C(=O)N2CC(CO)Cc3ccccc32)cc1)c1cc(Cl)cc(Cl)c1` (stereo not shown) [compound 96]: 39 nM; for `CNC1CCN(C(=O)c2ccc(NC(=O)c3cc(Cl)cc(Cl)c3)cc2)c2ccccc21` (stereo not shown) [compound 97]: 24 nM.
`NC1Cc2ccccc2N(C(=O)c2ccc(NC(=O)c3cc(Cl)cc(Cl)c3)cc2)C1` (stereo not shown) [compound 98] registered an IC50 of 450 nM.
Compound `CC(=O)NC1Cc2ccccc2N(C(=O)c2ccc(NC(=O)c3cc(Cl)cc(Cl)c3)cc2)C1` (stereo not shown) [compound 99] displayed an IC50 of 1600 nM.
The same measure for `CN(C)C1CCN(C(=O)c2ccc(NC(=O)c3cc(Cl)cc(Cl)c3)cc2)c2ccccc21` (stereo not shown) [compound 100]: 11 nM; for `O=C(CN1CCCCC1)Nc1ccc(C(=O)N2CCCCc3ccccc32)cc1` [compound 103]: 540 nM.
As to `O=C(COc1ccccc1)Nc1ccc(C(=O)N2CCCCc3ccccc32)cc1` [compound 104], the IC50 came to 370 nM.
`CC(C)(COc1ccccc1)NCC(=O)Nc1ccc(C(=O)N2CCCCc3ccccc32)cc1` [compound 106] gave an IC50 of 440 nM.
The same measure for `Cc1cccc(OCC(=O)Nc2ccc(C(=O)N3CCCCc4ccccc43)cc2)c1` [compound 107]: 32 nM.
The same measure for `COc1cccc(NCC(=O)Nc2ccc(C(=O)N3CCCCc4ccccc43)cc2)c1` [compound 108]: 120 nM.
Under `Cc1ccc(NCC(=O)Nc2ccc(C(=O)N3CCCCc4ccccc43)cc2)cc1` [compound 110] stands 44 nM.
`COc1cccc(OCC(=O)Nc2ccc(C(=O)N3CCCCc4ccccc43)cc2)c1` [compound 111] had an IC50 of 87 nM.
The same measure for `Cc1ccc(NCC(=O)Nc2ccc(C(=O)N3CCCCc4ccccc43)cc2)c(C)c1` [compound 113]: 280 nM; for `O=C(Nc1ccc(C(=O)N2CCCC(=O)c3ccccc32)cc1)c1cc(Cl)cc(Cl)c1` [compound 139]: 100 nM.
On to `CN1CCN(C(=O)c2ccc(NC(=O)c3cc(Cl)cc(Cl)c3)cc2Cl)c2ccccc2C1` [compound 140], for which the 50% inhibitory concentration (IC50) was found to be 24 nM. Against the preceding compound, the IC50 is about 4.2-fold lower.
Under `CNC1CCCN(C(=O)c2ccc(NC(=O)c3cc(Cl)cc(Cl)c3)cc2)c2ccccc21` (stereo not shown) [compound 141] stands 10 nM.
`CC(=O)N(C)C1CCCN(C(=O)c2ccc(NC(=O)c3cc(Cl)cc(Cl)c3)cc2)c2ccccc21` (stereo not shown) [compound 142] displayed an IC50 of 8 nM.
